The text below walks through data of ChEMBL document CHEMBL3638916, “Substituted 3-arylsulfonyl-pyrazolo[1,5-A]pyrimidines, serotonin 5-HT6 receptor antagonists and methods for the production and use thereof” (2013).

The structures appear in SMILES notation. pIC50: −log10 of the molar value.

Experiment [1] deals with T1, 5-hydroxytryptamine receptor 6 (Homo sapiens, UniProt P50406). Description: Functional Assay: Determination of antagonistic activity of compounds of the general formula 1 towards 5-HT6 receptors. Compounds of the general formula 1 were tested for their ability to prevent 5-HT6 receptors activation by serotonin. HEK 293 cells (cells of human embryo's kidney) with artificially expressed 5-HT6 receptor, activation of which by serotonin leads to increasing the concentration of intracellular cAMP, were used. The level of intracellular cAMP was determined using reagent kit LANCE cAMP (PerkinElmer) according to the method described by the manufacturer of the kit [http://las.perkinelmer.com/content/Manuals/MAN_LANCEcAMP384KitUser.pdf]. Effectiveness of the compounds was estimated by their ability to reduce the level of intracellular cAMP induced by serotonin. Table 4 presents IC50 values for the compounds of general formula 1 in the setting of functional assay for serotonin 5-HT6 receptor inhibition. The data given testify their moderate or high antagonistic activity. The experiment is classed as cell-based.
T1 sequence (P50406 whole entry): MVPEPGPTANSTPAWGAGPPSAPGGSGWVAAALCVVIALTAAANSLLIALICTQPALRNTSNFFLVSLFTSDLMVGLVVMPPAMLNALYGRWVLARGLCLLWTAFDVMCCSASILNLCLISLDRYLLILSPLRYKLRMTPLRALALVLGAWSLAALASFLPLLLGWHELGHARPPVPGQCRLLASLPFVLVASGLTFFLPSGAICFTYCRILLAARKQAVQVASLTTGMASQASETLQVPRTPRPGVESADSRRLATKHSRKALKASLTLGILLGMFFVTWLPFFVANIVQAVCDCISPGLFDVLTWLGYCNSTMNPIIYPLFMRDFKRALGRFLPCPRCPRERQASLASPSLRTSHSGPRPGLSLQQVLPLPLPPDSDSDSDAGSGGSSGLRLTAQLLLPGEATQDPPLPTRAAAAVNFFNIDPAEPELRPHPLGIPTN

Experiment [2] concerns the target T1, 5-hydroxytryptamine receptor 6. Kind of experiment: Mol. Pharmacol. 43:320-327, 1993].

With `CSc1nn2c(C)c(Br)c(C)nc2c1S(=O)(=O)c1ccccc1`, the negative-log IC50 (pIC50) (commonly −log10 of the IC50, conventionally taken in molar units) in experiment [1] was 5.08; in experiment [2], 7.30.
